Measured values from patent publication US9476030B2, “Self-renewing endodermal progenitor lines generated from human pluripotent stem cells and methods of use thereof” (The Children's Hospital of Philadelphia, priority 2011, dated 2016).

How the values were obtained:
Type in all cases: cell-based, human
H9-EP cells [1] = assay: EP cell maintenance: cell number / cell growth under various media conditions; conditions: for proliferation of EP cells (total cell number after 7-day expansion): FIG. 4B
Protocol: (§1) FIG. 4. Cytokine Requirements and Critical Signaling Pathways for EP Cell Maintenance and Differentiation. […] In each condition, one of the four cytokines was omitted or inhibitors of signaling pathways were added. The H9-EP cell line was grown for 1 week in optimal EP Basic Media (BASIC) or in the absence of BMP4, or bFGF or VEGF. (A) Flow cytometric analyses of SOX17 versus PDX1, or SOX17 versus FOXA1 are shown. […] (C-D) To evaluate the role of TGF signaling in EP cell maintenance and differentiation, the small molecule inhibitor SB431542 was added to EP media. (C) H9-EP cells were cultured in normal EP media (BASIC) or in EP media supplemented with SB431542 (6 M) either in the presence (+SB) or the absence of BMP4 (−BMP+SB). Cells were harvested at day 6. Flow cytometric analyses of SOX17 versus FOXA1 are shown. (D) H9-EP cells were cultured in the presence (SB, red circles) or the absence (BASIC, blue squares) of SB431542 for 3 passages and cell growth analyzed by cell counts at each passage. […] Cells were harvested at day 14 of differentiation, and were compared to those derived from SB-untreated group (BASIC). Flow cytometric analyses of C-peptide versus Glucagon are shown.
Cells were fed every two days, and were split at 1×10^6/58 cm^2 every 6 days by trypsinization. The small molecule inhibitors PD0325901 (Sebolt-Leopold et al., 2004; Ying et al., 2008), PD173074 (Mohammadi et al., 1998) and SB431542 (Laping et al, 2002; Inman et al., 2002) were purchased from Cayman Chemicals and Stemgent, respectively.

H9-EP and iPS2-EP cells = assay: Pancreatic differentiation of EP cells after culture with SB431542; conditions: EP cells cultured with SB431542 for 5 days, then differentiated, day 14, FIG. 4E
Protocol: FIG. 4. Cytokine Requirements and Critical Signaling Pathways for EP Cell Maintenance and Differentiation. […] In each condition, one of the four cytokines was omitted or inhibitors of signaling pathways were added. The H9-EP cell line was grown for 1 week in optimal EP Basic Media (BASIC) or in the absence of BMP4, or bFGF or VEGF. (A) Flow cytometric analyses of SOX17 versus PDX1, or SOX17 versus FOXA1 are shown. […] (C-D) To evaluate the role of TGF signaling in EP cell maintenance and differentiation, the small molecule inhibitor SB431542 was added to EP media. […] Cells were harvested at day 6. Flow cytometric analyses of SOX17 versus FOXA1 are shown. […] Cells were harvested at day 14 of differentiation, and were compared to those derived from SB-untreated group (BASIC). Flow cytometric analyses of C-peptide versus Glucagon are shown. […] (2011), was modified by omitting the first step, and by adding-secretase inhibitor X (Calbiochem, 2 M) from day 8 to day 12 of differentiation, as well as by adding human insulin (Sigma, 800 pM) and nicotinamide (Sigma, 10 mM) from day 10 and onwards. […] Mouse Wnt3a was supplemented to the step 2 media at 3 ng/ml. From day 10 and onwards, the medium was alternated every day between high dextrose (60 mM) and low dextrose (20 mM). […] Insulin secretion was calculated based on the total cell number and the percentage of c-peptide+ cells of each experiment. […]

H9-EP cells [2] = assay: Flow cytometric analysis of SOX17 / PDX1 / FOXA1 in EP cells under various media conditions; set-up: SOX17 expression in EP cells: dose or concentration left out as unconfirmed
Protocol: as §1
Single cell suspensions were obtained by dissociating day 5 transient endoderm, EP cell cultures, or EP cell differentiation cultures with 0.25% trypsin at 37° C. for 3-5 minutes. Cell surface antigen staining was performed in IMDM with 10% fetal calf serum. For intracellular staining, cells were fixed with 1.6% paraformaldehyde (Electron Microscopy Sciences) at 37 C for 20 minutes, and then washed twice with PBS+1% BSA. The fixed cells were permeabilized and stained in 1× Permeabilization Wash Buffer (BioLegend, 421002). The stained cells were analyzed with the BD FACS Canto II Flow Cytometer (BD Biosciences), and the data was analyzed using the Flowjo software (TreeStar). The sources and concentrations of primary, secondary antibodies and isotype controls are listed below.

[3] = inhibitor of FGF/Ras/MEK pathway added to EP media
[4] = withdrawal of the cytokine, within one week, FIG. 4A
[5] = withdrawal of the cytokine from EP basic media

CCN(CC)CCCCNc1ncc2cc(-c3cc(OC)cc(OC)c3)c(NC(=O)NC(C)(C)C)nc2n1 [PD173074]
proliferation of EP cells (total cell number after 7-day expansion) (H9-EP cells [1]; [3]): reduced proliferation dramatically

O=C(NOC[C@H](O)CO)c1ccc(F)c(F)c1Nc1ccc(I)cc1F [PD0325901]
proliferation of EP cells (total cell number after 7-day expansion) (H9-EP cells [1]; [3]): reduced proliferation dramatically

NC(=O)c1ccc(-c2nc(-c3ccc4c(c3)OCO4)c(-c3ccccn3)[nH]2)cc1 [SB431542]
differentiation of EP cells into pancreatic β-cells (H9-EP and iPS2-EP cells): inhibited differentiation into pancreatic β-cells
SOX17 expression in EP cells (H9-EP cells [2]; EP media supplemented with SB431542, harvested at day 6, FIG. 4C): completely abolished SOX17 expression
proliferation of EP cells (relative cell growth over 3 passages) (H9-EP cells [1]; SB431542 added to EP media, FIG. 4D): drastically suppressed proliferation

BMP4: human cytokine in EP basic medium (50 ng/ml)
PDX1 expression in EP cells (H9-EP cells [2]; [4]): up-regulation of PDX1
SOX17 expression in EP cells (H9-EP cells [2]; [4]): almost complete loss of SOX17 expression

EGF: human cytokine in EP basic medium (10 ng/ml) (NSDSECPLSHDGYCLHDGVCMYIEALDKYACNCVVGYIGERCQYRDLKWWELR; UniProt P01133 971-1023, looked up)
proliferation of EP cells (total cell number after 7-day expansion) (H9-EP cells [1]; [5]): significant decrease in proliferation

VEGF
proliferation of EP cells (total cell number after 7-day expansion) (H9-EP cells [1]; [5]): significant decrease in proliferation

bFGF: human cytokine in EP basic medium (10 ng/ml)
proliferation of EP cells (total cell number after 7-day expansion) (H9-EP cells [1]; [5]): reduced proliferation dramatically
